Entries after “also recorded” stand apart in the source; their conditions may differ. Read-outs that look alike come from different tables or passages of the source.
Legend:
[1] = tested on: T2-cells; test: 51Cr-release cytotoxicity assay, T2-cells; type: cell-based
Method: Conventional ^51Cr-release assays for CTL-mediated cytotoxicity were carried out as described elsewhere (Andersen et al., 1999). Target cells were T2 with and without PDL101 (FIG. 3a) and the HLA-A2+ breast cancer cell line the breast cancer cell line MDA-MB-231 (FIG. 3b) (available at the American Type Culture Collection (ATCC)).
(§1) Conventional ^51Cr-release assays for CTL-mediated cytotoxicity were carried out as described in Andersen et al., J Immunol 1999. Target cells were T2-cells, HLA-A2^+ EBV transformed B-cell line (KIG-BCL), autologous matured DC (mDC), HLA-A2^+ melanoma cell lines (MM1312.07 and MM.909.06) with or without IFN-γ (100 U/ml) addition for 2 days. T2-cells and KIG-BCL were pulsed with PD-L1 recombinant protein (Sin θ Biological Inc.) for 3 hr. at 37° C. prior addition of chromium. Lysis of T2-cells was blocked using anti HLA-A2 FITC conjugated antibody (2 ug/100 ul, BD Biosciences).

[2] = tested on: HLA-A2+ EBV transformed B-cell line (KIG-BCL); type: cell-based; conditions: 51Cr-release
Method: as §1

[3] = tested on: autologous matured DC (mDC); test: 51Cr-release cytotoxicity assay, autologous matured DC; type: cell-based, human; conditions: mDC transfected by electroporation
Method: DC were generated from PBMC by adherence on culture dishes at 37° C. for 1-2 hr. in RPMI-1640. Adherent monocytes were cultured in RPMI-1640 supplemented with 10% fetal calf serum in the presence of IL-4 (250 U/ml) and GM-CSF (1000 U/ml) for 6 days. DC were matured by addition of […] (1000 U/ml), IL-6 (1000 U/ml) TNF-α (1000 U/ml) and PGE2 (1 ug/ml).
as §1
(§2) Stealth siRNA duplex for targeted silencing of PD-L1 and recommended Stealth siRNA negative control duplex for medium GC content were obtained from Invitrogen (Invitrogen, Paisley, UK). The Stealth PD-L1 siRNA duplex consisted of the sense sequence 5′-[…]3′ (SEQ ID NO: 21) and the anti-sense sequence 5′-[…]-3′ (SEQ ID NO:22). For PD-L1 silencing experiments, mDC were transfected with PD-L1 siRNA using electroporation parameters.

[4] = tested on: PD-L1 surface expression on mDC; test: Flow cytometry of PD-L1 surface expression on mDC; type: cell-based, human; conditions: 24 hr after transfection; 0.05, 0.10 and 0.25 nmol
Method: as §2
(§3) Flow cytometry analysis was performed on a FACSCANTO II (BD Biosciences, San Jose Calif., USA) to determine PD-L1 surface expression on mDC before and after siRNA targeted silencing, T2-cells, KIG-BCL and HLA-A2^+ melanoma cell lines (MM1312.07 and MM.909.06) with or without IFN-γ treatment. Cells were washed in PBS/1% BSA and subsequently stained either with FITC- or PE-Cy5-conjugated anti-PD-L1 monoclonal antibody for 30 min on ice in PBS/1% BSA. Nonreactive isotype-matched antibody (BD Biosciences) was used as control. Fluorescence analyses were performed using FACSDiva software (BD Biosciences) and FlowJo software (Tree Star, Ashland Oreg., USA).

[5] = tested on: PBMC; test: IFN-γ ELISPOT assay; type: cell-based, human; conditions: for specific T-cell responses, IFN-γ ELISPOT: PBMC from HLA-A2+ cancer patients (breast cancer, melanoma, renal cell carcinoma) stimulated once with peptide in vitro
From the text: The ELISPOT assay was used to quantify peptide specific IFN-γ releasing effector cells as described previously (Andersen et al., 2001, Cancer Res. 61:869-872). In some experiments PBMC were stimulated once in vitro with peptide prior to analysis as described (McCutcheon et al., 1997, J Immunol Methods 210:149-166) to extend the sensitivity of the assay. Briefly, nitrocellulose bottomed 96-well plates (MultiScreen MAIP N45; Millipore) were coated overnight with IFN-γ capture mAb (Mabtech). The wells were washed, blocked by X-vivo medium and the effector cells (PBMC collected and when indicated stimulated as described above) were added in duplicates at different cell concentrations, with or without 10 μM peptide. The plates were incubated overnight. The following day, medium was discarded and the wells were washed prior to addition of the relevant biotinylated secondary Ab (Mabtech). The plates were incubated at room temperature (RT) for 2 hours, washed, and Avidin-enzyme conjugate (AP-Avidin; Calbiochem/Invitrogen Life Technologies) was added to each well. Plates were incubated at RT for 1 hour and the enzyme substrate NBT/BCIP (Invitrogen Life Technologies) was added to each well and incubated at RT for 5-10 min. Upon the emergence of dark purple spots, the reaction was terminated by washing with tap water. The spots were counted using the ImmunoSpot Series 2.0 Analyzer (CTL Analyzers).
(§4) In the present study the ELISPOT was performed according to the guidelines provided by CIP (http://cimt.eu/cimt/files/dl/cip_guidelines.pdf). In some experiments PBMC were stimulated once in vitro with peptide prior to analysis as described to extend the sensitivity of the assay. Briefly, nitrocellulose bottomed 96-well plates (MultiScreen MAIP N45; Millipore) were coated overnight with the relevant antibodies. The wells were washed, blocked by X-vivo medium and the effector cells were added if possible in triplicates otherwise in duplicates at different cell concentrations, with or without peptide. The plates were incubated overnight. The following day, medium was discarded and the wells were washed prior to addition of the relevant biotinylated secondary Ab (Mabtech), followed by the Avidin-enzyme conjugate (AP-Avidin; Calbiochem/Invitrogen Life Technologies) and finally the enzyme substrate NBT/BCIP (Invitrogen Life Technologies). The spots were counted using the ImmunoSpot Series 2.0 Analyzer (CTL Analyzers). Definition of an ELISPOT response was based on the guidelines and recommendations provided by CIP by an empirical or a statistical approach; the former implies setting a threshold to represent a biological response. […] The non-parametric Distribution free resampling (DFR) test gives a way of formally comparing antigen stimulated wells with negative control wells. As a minimum the ELISPOT assay must be performed at least in triplets. Furthermore, the non-parametric unpaired Mann-Whitney test was used to compare PD-L101-specific responders between cancer patients and healthy donors.

[6] = tested on: PBMC; test: TNF-α ELISPOT; type: cell-based, human; conditions: PBMC from IFN-γ-responding patients, triplicates
Method: In addition to determining the presence of specific T-cells using IFNγ as a marker, TNFα was also used as a marker. Thus, an ELISPOT assay was performed essentially as described above with the PDL101 peptide including a stimulation once in vitro with said peptide, except that TNFα antibodies were used in place of IFNγ antibodies. FIG. 2B show the results.
In the present study the ELISPOT was performed according to the guidelines provided by CIP (http://cimt.eu/cimt/files/dl/cip_guidelines.pdf). In some experiments PBMC were stimulated once in vitro with peptide prior to analysis as described to extend the sensitivity of the assay. Briefly, nitrocellulose bottomed 96-well plates (MultiScreen MAIP N45; Millipore) were coated overnight with the relevant antibodies. The wells were washed, blocked by X-vivo medium and the effector cells were added if possible in triplicates otherwise in duplicates at different cell concentrations, with or without peptide. The plates were incubated overnight. The following day, medium was discarded and the wells were washed prior to addition of the relevant biotinylated secondary Ab (Mabtech), followed by the Avidin-enzyme conjugate (AP-Avidin; Calbiochem/Invitrogen Life Technologies) and finally the enzyme substrate NBT/BCIP (Invitrogen Life Technologies). The spots were counted using the ImmunoSpot Series 2.0 Analyzer (CTL Analyzers). […]

[7] = tested on: PBMC; test: Granzyme B (GrB) ELISPOT; type: cell-based, human; conditions: PBMC from three melanoma patients (MM.03, MM.53, MM.135)
Method: as §4, with “As a minimum the ELISPOT assay must be performed at least in triplets. Furthermore, the non-parametric unpaired Mann-Whitney test was used to compare PD-L101-specific responders between cancer patients and healthy donors.” left out

[8] = tested on: HLA-A2; test: HLA peptide exchange technology and ELISA; type: binding, human; conditions: compared with high affinity epitopes HIV-1 pol476-484 and CMV pp65 pos495-503
From the text: To evaluate the affinity of the HLA-peptide complex a UV exchange method was used in combination with a sandwich ELISA as previously described (19).

[9] = tested on: PD-L101-specific, CD8 T-cells among PBMC; test: HLA-A2/PD-L101 tetramer staining by flow cytometry; type: cell-based, human; conditions: for PD-L1-tetramer positive cells: after three in vitro re-stimulations
Method: Two PD-L101-specific T cell culture were established. PBMC from a breast cancer patient (CM.21) and from a melanoma (MM.05) patient were stimulated with irradiated PD-L101-loaded autologous DC. The following day IL-7 and IL-12 (PeproTech, London, UK) were added. […] The day after peptide stimulation IL-2 (PeproTech, London, UK) was added.
For multimer/tetramer staining, tetramers coupled with PE and APC were prepared using MHC-peptide exchange technology. […] Dead cell marker 7-AAD-PerCP (BD Bioscience) added prior to FACS analysis.

[10] = tested on: PD-L101-specific T-cell bulk culture; test: CD107a staining of T-cell bulk culture after peptide addition; type: cell-based, human; conditions: peptide added directly to T-cell bulk culture, FACS
From the text: Subsequently, cells were stained with tetramer and surface markers and analysed FACSCANTO II (BD Biosciences, San Jose Calif., USA).

[11] = tested on: HLA-A2+ melanoma cell line MM1312.07; test: 51Cr-release cytotoxicity assay, MM1312.07; type: cell-based; conditions: IFN-γ (100 U/ml) for 2 days
Method: as §1

[12] = tested on: HLA-A2+ melanoma cell line MM.909.06; test: 51Cr-release cytotoxicity assay, MM.909.06; type: cell-based; conditions: IFN-γ (100 U/ml) for 2 days
Method: as §1

[13] = tested on: PD-L1 surface expression on MM1312.07; test: Flow cytometry of PD-L1 surface expression on MM1312.07; type: cell-based; conditions: FACS
Method: as §3

[14] = tested on: PD-L1 surface expression on MM.909.06; test: Flow cytometry of PD-L1 surface expression on MM.909.06; type: cell-based; conditions: FACS
Method: as §3

In the case of “PD-L1 protein: PD-L1 recombinant protein (Sin θ Biological Inc.), full length, used to pulse T2-cells and KIG-BCL”, the “lysis of peptide- or protein-pulsed T2-cells by PD-L101-specific T-cell culture” value (from here on “lysis … by PD-L101-specific T-cell culture”) [1] is reported as “recognized and killed” and the “lysis of pulsed KIG-BCL by PD-L101-specific CTL” value (“lysis of pulsed KIG-BCL” for short) [2] is reported as “not recognized”.

“ILKEPVHGV [HIV-1 pol476-484, reference compound]” was tested, and the “lysis … by PD-L101-specific T-cell culture” value [1] was “no cytotoxic was observed” and the “lysis of pulsed KIG-BCL” value [2] was “not killed”.

With “5′-CCUACUGGCAUUUGCUGAACGCAUU3′ (antisense AAUGCGUUCAGCAAAUGCCAGUAGG; listed as RNA, chemistry not given here) [PD-L1 siRNA]” the “killing of siRNA-transfected mDC by PD-L1-specific CTL cultures” value [3] was “rescued the DC from being killed” and the “PD-L1 protein surface expression on mDC after siRNA transfection” value [4] was “reduced the level of PD-L1 protein expression”.

In the case of “FMTYWHLLNAFTVTVPKDL (PD-L1 peptide) [PDLong1]”, the “lysis … by PD-L101-specific T-cell culture” value [1] is reported as “take up, process and present” and the “lysis of pulsed KIG-BCL” value [2] is reported as “recognized”.

CLGVALTFI (PD-L1 peptide) [PDL111] was tested, and the “specific T-cell responses, IFN-γ ELISPOT” value [5] was “responses were detected”.

With “VILGAILLCLGVALTFIFRLRKG (PD-L1 peptide) [PDLong2]” the “lysis of pulsed KIG-BCL” value [2] was “not killed”.

In the case of LLNAFTVTV (PD-L1 peptide) [PD-L101], the “specific T-cell responses, IFN-γ ELISPOT” value [5] is reported as “Frequent and strong responses were detected”, the “specific T-cell responses, IFN-γ ELISPOT” value ([5]; listed as PDL101) is reported as “responses were detected” and the “PD-L101-specific cells, IFN-γ ELISPOT directly ex vivo” value ([5]; PBMC of responding patients, without peptide stimulation in vitro) is reported as “significant responses; also recorded: readily detectable ex vivo in selected patients”. For the same molecule, the “TNF-α release by PD-L101-specific cells, TNF-α ELISPOT” value [6] was “released TNF-α”, the “GrB ELISPOT responses (DFR test)” value [7] was “could be detected in the three patients; also recorded: significant responses against PD-L101 in two of the patients” and the “frequency of PD-L101-specific, GrB releasing cells” value [7] was 100-300 PD-L101-specific, GrB releasing cells per 5×10^5 PBMC. For the same molecule, the “binding to HLA-A2” value [8] was “comparable to the high-affinity control epitope”, the “PD-L1-reactive T cells by HLA-A2/PD-L101 tetramer, directly ex vivo” value ([9]; PBMC from two PD-L101-responding patients (CM.21, MM.05)) was “detectable ex vivo in both patients” and the PD-L1-tetramer positive cells ([9]; T-cells from a breast cancer patient) was 13.52%. For the same molecule, the PD-L1-tetramer positive cells ([9]; T-cells from a malignant melanoma patient) was 0.17%, the “frequency of PD-L1-specific T-cells by tetramer after one in vitro peptide stimulation” value ([9]; both patients (CM.21, MM.05)) was “markedly increased the frequency” and the “HLA-A2/PD-L101-tetramer+, CD107a+ cells” value [10] was “distinct populations”. For the same molecule, the “lysis … by PD-L101-specific T-cell culture” value [1] was “killed; also recorded: lysed T2-cells pulsed with PD-L101 efficiently”, the “lysis … by PD-L101-specific T-cell culture” value ([1]; listed as PDL01) was “efficiently presented” and the “lysis of pulsed KIG-BCL” value [2] was “recognized”.

For VILGAILLCL (PD-L1 peptide) [PDL114], the “specific T-cell responses, IFN-γ ELISPOT” value [5] was “responses were detected”.

B1: IFN-γ: cytokine added (100 U/ml, 2 days) to melanoma cell lines (protein, UniProt P01579 24-161, looked up)
Interferon gamma: QDPYVKEAENLKKYFNAGHSDVADNGTLFLGILKNWKEESDRKIMQSQIVSFYFKLFKNFKDDQSIQKSVETIKEDMNVKFFNSNKKKRDDFEKLTNYSVTDLNVQRKAIHELIQVMAELSPAAKTGKRKRSQMLFRG
For B1, the “effect of IFN-γ treatment on killing of MM1312.07” value [11] was “increased the killing of both melanoma cell lines”, the “effect of IFN-γ treatment on killing of MM.909.06” value [12] was “increased the killing of both melanoma cell lines” and the “effect of IFN-γ treatment on PD-L1 expression, MM1312.07” value [13] was “increased the expression of PD-L1 in both cell lines”. The “effect of IFN-γ treatment on PD-L1 expression, MM.909.06” value [14] was “increased the expression of PD-L1 in both cell lines”.

— patent US9669078B2, “PD-L1 based immunotherapy” (Herlev Hospital, priority 2011, dated 2017)
